Columns and labels:
[1] = system: K. pneumoniae ATCC 10031 (SEN) and K. pneumoniae ATCC 700603 (MDR); assay: Adaptive laboratory evolution (ALE), relative MIC of evolved lines; assay type: cell-based, Klebsiella pneumoniae
Method in brief: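 Ten parallel populations per antibiotic–ancestor pair were evolved in MHB at 37 °C, starting near 50% growth-inhibiting drug. Every 72 h they were passaged into 0.5–2.5× increasing concentrations, keeping the highest-drug well with OD600 > 0.2.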

[2] = system: E. coli ATCC 25922 (SEN) and E. coli NCTC13846 (MDR); assay: as above; assay type: cell-based, Escherichia coli
From the text: Using the same set of bacterial strains, we initiated adaptive laboratory evolution with the aim to maximize the level of antibiotic resistance in the populations achieved during a longer, but fixed time period.
An established protocol for adaptive laboratory evolution[46],[73] was followed to propagate populations with the highest resistance levels. Starting with an antibiotic concentration that caused approximately 50% growth inhibition, ten parallel populations for each antibiotic-ancestor strain combination were grown for 72 hours at 37 °C with continuous shaking (300 RPM). MHB broth medium was used unless stated otherwise. After each incubation, 20 µl of each culture was transferred to four new wells containing fresh medium with increasing antibiotic concentrations (0.5×, 1×, 1.5×, and 2.5× the previous concentration) in a chessboard layout to monitor potential cross-contamination. Growth was monitored by measuring OD600 using a Biotek Synergy 2 microplate reader, and only populations grown in the highest drug concentration with an OD600 > 0.2 were transferred further.
A robotic liquid handling system was used to automatically prepare a 11 to 16-step serial dilution in 384-well microtiter plates (Greiner). A final concentration of 5 × 10^5 bacterial cells per mL were inoculated into each well containing 60 µL MHB medium. Bacterial cultures were incubated at 37 °C with continuous shaking (Infors shaker, 900 rpm with 3 mm throw) for 18 hours (2 replicates from each). Cell growth was monitored by measuring the optical density (OD600 values, using Biotek Synergy microplate reader). MIC was defined as the antibiotic concentration of complete growth inhibition (i.e., OD600 < 0.05). Relative MIC was calculated as follows:1 relativeMIC=MICevolved/MICancestor […]
Supplementary Figure 4. Resistance levels following adaptive laboratory evolution across bacterial strains. The level of resistance was measured as the fold change in relative MIC between evolved and ancestral strains after ~60 days of adaptive laboratory evolution. Data are grouped by bacterial strain (A. baumannii (AB), E. coli (EC), K. pneumoniae (KP), and P. aeruginosa (PA)) and categorized as either multidrug-resistant (MDR) or sensitive (SEN). Each data point represents a laboratory evolved line, and boxplots show the median, first and third quartiles, with whiskers indicating the 5th and 95th percentiles.
Statistical analysis was performed using two-sided Dunn’s post-hoc test with Benjamini-Hochberg correction for multiple comparisons (****/ ***/ **/ * indicates p < 0.0001/ 0.001/ 0.01/ 0.05). For detailed information on antibiotic and bacterial species, see Supplementary Table 1. For mode of action groups, refer to Table 1. Source data are provided as a Source Data file.
(1 picture or pasted object on this page, not shown here)

CN(C)[C@@H]1C(O)=C(C(N)=O)C(=O)[C@@]2(O)C(O)=C3C(=O)c4c(O)c(NC(=O)CN5CCCC5)cc(F)c4C[C@H]3C[C@@H]12 [Eravacycline]
Relative MIC ([1]; KP-MDR (ATCC 700603), evolved line 1, MIC of evolved line / MIC of ancestor): 8 | Relative MIC ([1]; KP-MDR (ATCC 700603), evolved line 2, MIC of evolved line / MIC of ancestor): 8 | Relative MIC ([1]; KP-MDR (ATCC 700603), evolved line 3, MIC of evolved line / MIC of ancestor): 16 | Relative MIC ([1]; KP-MDR (ATCC 700603), evolved line 4, MIC of evolved line / MIC of ancestor): 8 | Relative MIC ([1]; KP-MDR (ATCC 700603), evolved line 5, MIC of evolved line / MIC of ancestor): 8 | Relative MIC ([1]; KP-MDR (ATCC 700603), evolved line 6, MIC of evolved line / MIC of ancestor): 8 | Relative MIC ([1]; KP-MDR (ATCC 700603), evolved line 7, MIC of evolved line / MIC of ancestor): 8 | Relative MIC ([1]; KP-MDR (ATCC 700603), evolved line 8, MIC of evolved line / MIC of ancestor): 16 | Relative MIC ([1]; KP-MDR (ATCC 700603), evolved line 9, MIC of evolved line / MIC of ancestor): 8 | Relative MIC ([1]; KP-MDR (ATCC 700603), evolved line 10, MIC of evolved line / MIC of ancestor): 8 | Relative MIC (log10) ([1]; KP-MDR (Klebsiella pneumoniae ATCC 700603), evolved line 1 adapted to the named antibiotic): 0.9031 | Relative MIC (log10) ([1]; KP-MDR (Klebsiella pneumoniae ATCC 700603), evolved line 3 adapted to the named antibiotic): 1.204 | Relative MIC (log10) ([1]; KP-MDR (Klebsiella pneumoniae ATCC 700603), evolved line 4 adapted to the named antibiotic): 0.9031 | Relative MIC (log10) ([1]; KP-MDR (Klebsiella pneumoniae ATCC 700603), evolved line 8 adapted to the named antibiotic): 1.204 | Relative MIC (log10) ([1]; KP-MDR (Klebsiella pneumoniae ATCC 700603), evolved line 9 adapted to the named antibiotic): 0.9031 | Relative MIC ([1]; KP-SEN (ATCC 10031), evolved line 1, evolved vs ancestor): 512 | Relative MIC ([1]; KP-SEN (ATCC 10031), evolved line 3, evolved vs ancestor): 256 | Relative MIC ([1]; KP-SEN (ATCC 10031), evolved line 4, evolved vs ancestor): 64 | Relative MIC ([1]; KP-SEN (ATCC 10031), evolved line 7, evolved vs ancestor): 64 | Relative MIC ([1]; KP-SEN (ATCC 10031), evolved line 9, evolved vs ancestor): 256 | Relative MIC ([1]; KP-SEN (ATCC 10031), evolved line 10, evolved vs ancestor): 512 | Relative MIC (log10) ([1]; KP-SEN (Klebsiella pneumoniae ATCC 10031), evolved line 1): 2.709 log10 | Relative MIC (log10) ([1]; KP-SEN (Klebsiella pneumoniae ATCC 10031), evolved line 3): 2.408 log10 | Relative MIC (log10) ([1]; KP-SEN (Klebsiella pneumoniae ATCC 10031), evolved line 9): 2.408 log10 | Relative MIC (log10) ([1]; KP-SEN (Klebsiella pneumoniae ATCC 10031), evolved line 10): 2.709 log10 | Relative MIC (log10) ([1]; KP-SEN, Klebsiella pneumoniae ATCC 10031, evolved line 7): 1.806 log10 | Relative MIC ([1]; Klebsiella pneumoniae ATCC 10031 (KP-SEN), evolved line 1): 512 | Relative MIC ([1]; Klebsiella pneumoniae ATCC 10031 (KP-SEN), evolved line 3): 256 | Relative MIC ([1]; Klebsiella pneumoniae ATCC 10031 (KP-SEN), evolved line 4): 64 | Relative MIC ([1]; Klebsiella pneumoniae ATCC 10031 (KP-SEN), evolved line 7): 64 | Relative MIC ([1]; Klebsiella pneumoniae ATCC 10031 (KP-SEN), evolved line 9): 256 | Relative MIC ([1]; Klebsiella pneumoniae ATCC 10031 (KP-SEN), evolved line 10): 512 | Relative MIC ([1]; Klebsiella pneumoniae ATCC 700603 (KP-MDR), evolved line 1): 8 | Relative MIC ([1]; Klebsiella pneumoniae ATCC 700603 (KP-MDR), evolved line 2): 8 | Relative MIC ([1]; Klebsiella pneumoniae ATCC 700603 (KP-MDR), evolved line 3): 16 | Relative MIC ([1]; Klebsiella pneumoniae ATCC 700603 (KP-MDR), evolved line 4): 8 | Relative MIC ([1]; Klebsiella pneumoniae ATCC 700603 (KP-MDR), evolved line 5): 8 | Relative MIC ([1]; Klebsiella pneumoniae ATCC 700603 (KP-MDR), evolved line 6): 8 | Relative MIC ([1]; Klebsiella pneumoniae ATCC 700603 (KP-MDR), evolved line 7): 8 | Relative MIC ([1]; Klebsiella pneumoniae ATCC 700603 (KP-MDR), evolved line 8): 16 | Relative MIC ([1]; Klebsiella pneumoniae ATCC 700603 (KP-MDR), evolved line 9): 8 | Relative MIC ([1]; Klebsiella pneumoniae ATCC 700603 (KP-MDR), evolved line 10): 8 | Relative MIC (log10) ([2]; EC-MDR (Escherichia coli NCTC 13846), evolved line 1 adapted to the named antibiotic): 1.505 | Relative MIC (log10) ([2]; EC-MDR (Escherichia coli NCTC 13846), evolved line 3 adapted to the named antibiotic): 1.204 | Relative MIC (log10) ([2]; EC-MDR (Escherichia coli NCTC 13846), evolved line 4 adapted to the named antibiotic): 1.204 | Relative MIC (log10) ([2]; EC-MDR (Escherichia coli NCTC 13846), evolved line 7 adapted to the named antibiotic): 1.204 | Relative MIC (log10) ([2]; EC-MDR (Escherichia coli NCTC 13846), evolved line 9 adapted to the named antibiotic): 1.505 | Relative MIC ([2]; EC-MDR (NCTC 13846), evolved line 1, MIC of evolved line / MIC of ancestor): 32 | Relative MIC ([2]; EC-MDR (NCTC 13846), evolved line 2, MIC of evolved line / MIC of ancestor): 16 | Relative MIC ([2]; EC-MDR (NCTC 13846), evolved line 3, MIC of evolved line / MIC of ancestor): 16 | Relative MIC ([2]; EC-MDR (NCTC 13846), evolved line 4, MIC of evolved line / MIC of ancestor): 16 | Relative MIC ([2]; EC-MDR (NCTC 13846), evolved line 5, MIC of evolved line / MIC of ancestor): 8 | Relative MIC ([2]; EC-MDR (NCTC 13846), evolved line 7, MIC of evolved line / MIC of ancestor): 16 | Relative MIC ([2]; EC-MDR (NCTC 13846), evolved line 8, MIC of evolved line / MIC of ancestor): 16 | Relative MIC ([2]; EC-MDR (NCTC 13846), evolved line 9, MIC of evolved line / MIC of ancestor): 32 | Relative MIC ([2]; EC-MDR (NCTC 13846), evolved line 10, MIC of evolved line / MIC of ancestor): 8 | Relative MIC ([2]; EC-SEN (ATCC 25922), evolved line 1, MIC of evolved line / MIC of ancestor): 64 | Relative MIC ([2]; EC-SEN (ATCC 25922), evolved line 2, MIC of evolved line / MIC of ancestor): 16 | Relative MIC (log10) ([2]; EC-SEN (Escherichia coli ATCC 25922), evolved line 1 adapted to the named antibiotic): 1.806 | Relative MIC (log10) ([2]; EC-SEN (Escherichia coli ATCC 25922), evolved line 4 adapted to the named antibiotic): 1.204 | Relative MIC (log10) ([2]; EC-SEN (Escherichia coli ATCC 25922), evolved line 7 adapted to the named antibiotic): 1.204 | Relative MIC (log10) ([2]; EC-SEN (Escherichia coli ATCC 25922), evolved line 8 adapted to the named antibiotic): 1.204 | Relative MIC ([2]; EC-SEN, Escherichia coli ATCC 25922, evolved line 3 versus ancestor): 8 | Relative MIC ([2]; EC-SEN, Escherichia coli ATCC 25922, evolved line 4 versus ancestor): 16 | Relative MIC ([2]; EC-SEN, Escherichia coli ATCC 25922, evolved line 6 versus ancestor): 8 | Relative MIC ([2]; EC-SEN, Escherichia coli ATCC 25922, evolved line 7 versus ancestor): 16 | Relative MIC ([2]; EC-SEN, Escherichia coli ATCC 25922, evolved line 8 versus ancestor): 16 | Relative MIC ([2]; EC-SEN, Escherichia coli ATCC 25922, evolved line 9 versus ancestor): 16 | Relative MIC ([2]; EC-SEN, Escherichia coli ATCC 25922, evolved line 10 versus ancestor): 32 | Relative MIC ([2]; Escherichia coli ATCC 25922 (EC-SEN), evolved line 1): 64 | Relative MIC ([2]; Escherichia coli ATCC 25922 (EC-SEN), evolved line 2): 16 | Relative MIC ([2]; Escherichia coli ATCC 25922 (EC-SEN), evolved line 3): 8 | Relative MIC ([2]; Escherichia coli ATCC 25922 (EC-SEN), evolved line 4): 16 | Relative MIC ([2]; Escherichia coli ATCC 25922 (EC-SEN), evolved line 6): 8 | Relative MIC ([2]; Escherichia coli ATCC 25922 (EC-SEN), evolved line 7): 16 | Relative MIC ([2]; Escherichia coli ATCC 25922 (EC-SEN), evolved line 8): 16 | Relative MIC ([2]; Escherichia coli ATCC 25922 (EC-SEN), evolved line 9): 16 | Relative MIC ([2]; Escherichia coli ATCC 25922 (EC-SEN), evolved line 10): 32 | Relative MIC ([2]; Escherichia coli NCTC 13846 (EC-MDR), evolved line 1): 32 | Relative MIC ([2]; Escherichia coli NCTC 13846 (EC-MDR), evolved line 2): 16 | Relative MIC ([2]; Escherichia coli NCTC 13846 (EC-MDR), evolved line 3): 16 | Relative MIC ([2]; Escherichia coli NCTC 13846 (EC-MDR), evolved line 4): 16 | Relative MIC ([2]; Escherichia coli NCTC 13846 (EC-MDR), evolved line 5): 8 | Relative MIC ([2]; Escherichia coli NCTC 13846 (EC-MDR), evolved line 7): 16 | Relative MIC ([2]; Escherichia coli NCTC 13846 (EC-MDR), evolved line 8): 16 | Relative MIC ([2]; Escherichia coli NCTC 13846 (EC-MDR), evolved line 9): 32 | Relative MIC ([2]; Escherichia coli NCTC 13846 (EC-MDR), evolved line 10): 8

Source: publication PMC11845477, “Exploring the principles behind antibiotics with limited resistance” (Nature Communications, 2025)
